Assay results as given in patent US20190076439A1, “AMINOPHENOTHIAZINES FOR MODULATING THE NUMBER OF SYNAPSES” (CONSEJO SUPERIOR DE INVESTIGACIONES CIENTIFICAS (CSIC), priority 2015, published 2019).

What was measured:
[1] = target: T1, interaction between human NCS1 and Ric8a (Homo sapiens, UniProt P62166); assay: Coimmunoprecipitation interference test of the NCS1/Ric8a interaction in lysate of transfected HEK293 cells; assay type: biochemical; details: HEK293 cells transfected with V5-Ric8a and NCS1; lysate incubated with compound; FIG. 2
T1 construct: The NCS1 construct was subcloned into pCDNA3.1; expressed in transfected cells; host or cells: HEK293
T1 sequence (P62166 2-190 limits assumed): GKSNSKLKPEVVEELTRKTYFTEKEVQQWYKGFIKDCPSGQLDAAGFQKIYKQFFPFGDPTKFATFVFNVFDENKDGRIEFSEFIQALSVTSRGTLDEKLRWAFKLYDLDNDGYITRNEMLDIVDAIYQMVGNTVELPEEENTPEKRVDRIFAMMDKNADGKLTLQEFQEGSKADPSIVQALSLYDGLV
Experimental: The DMSO lane represents a positive control of the interaction.
In order to check whether the interaction which has been previously detected (Romero-Pozuelo J et al. The guanine-exchange factor Ric8a binds to the Ca^2+ sensor NCS-1 to regulate synapse number and neurotransmitter release. J Cell Sci. 2014 Oct. 1; 127(Pt 19):4246-59) between the Drosophila Frq2 and Ric8a proteins, the coimmunoprecipitation of their human equivalents, NCS1 and Ric8a was tested. Human Ric8a was subcloned into nV5pCDNA3.1. The NCS1 construct was subcloned into pCDNA3.1. The cotransfections were carried out in HEK293 cells using the Superfect® (Qiagen®) reagent and lysed 48 hours later. Before its clarification, the lysates were incubated with the respective compound at 4° C. for the night (12 hours) with and without anti-V5 (Invitrogen®) or anti-NCS1 (Cell Signaling Technology®) antibodies as is indicated in each experiment. As a negative control, immunoprecipitations were carried out with an unrelated antibody. The following antibodies and dilutions were used with the Western blots: rabbit anti-NCS1 (1:1000) and mouse anti-V5 (1:2000). […] The Ric8a immunoprecipitation pulls NCS1 and vice versa. […]

[2] = target: T2, Drosophila NCS-1 (Frq2) protein (Drosophila melanogaster, UniProt Q9VWX8); assay: Crystallographic structure of the NCS-1 complex with FD44; assay type: binding; details: 1.6 Å dataset, FIG. 4
T2 sequence (Q9VWX8 1-187): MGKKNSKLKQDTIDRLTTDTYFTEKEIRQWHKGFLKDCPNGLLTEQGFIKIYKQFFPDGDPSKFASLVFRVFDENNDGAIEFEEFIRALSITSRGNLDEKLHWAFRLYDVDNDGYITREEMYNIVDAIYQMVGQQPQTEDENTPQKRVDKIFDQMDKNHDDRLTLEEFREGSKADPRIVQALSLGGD
Description: FIG. 4 (A) Representation of the crystallographic structure of the NCS1/FD44 complex. The FD44 molecule is shown in sticks. The 2Fo-Fc map of the small molecule is shown at 1σ. (B) Representation of the electrostatic molecular surface of NCS1 bound to FD44 where the hydrophobic environment of FD44 is observed. (C) Detailed view of the amino acids in contact with FD44. The majority of the interactions are Van der Waals, except a strong hydrogen bond with T92, that is mediated by water molecule (with discontinuous black lines), and three weak hydrogen bonds where a C atom is the hydrogen donor and an O atom is the acceptor. (D) Close-up view of the cavity where FD44 is bound.
The purified Drosophila NCS-1 (Frq2) protein was dialyzed with water and concentrated to 10 mg ml-1 using a concentrator with a cut membrane of 10 kDa (Vivaspin®). 0.3 mg of FD44 were added to 250 μl of protein sample and incubated for 16 hours at 4° C. The insoluble fraction of the compound was separated by centrifugation. The preliminary crystallization experiments were carried out using the Innovadine® crystallization robot and commercial crystallization kits (Molecular Dimensions®, Qiagen®, Hampton Research® and Jena Bioscience®). […]

[3] = tested on: Drosophila fmr1 mutant and wild type larvae
Description: FIG. 3 A) volume of the neuromuscular plate normalized with respect to the wild type. Wt DMSO=wild type larvae grown in medium with DMSO carrier (200 micromolar), wt FD44=larvae grown in medium with FD44 dissolved in DMSO (200 micromolar), dFMRPmutDMSO=mutant larvae for the fmr1 gene grown in medium with DMSO, dFMRPmut FD44=mutant larvae grown in medium with FD44 (200 micromolar). B) Same genotypes computing the synapse number (immunopositive points for the nc82 monoclonal antibody). C) Same genotypes computing the number of collateral branches. D) Representative images of each genotype. Each image is an accumulation of all the confocal planes.
The mutating in the fmr1 gene corresponds to Fmr1^Δ50M # BL-6930 and the wild type corresponds to the Canton-S strain, all originating from the repository of the Bloomington Drosophila Stock Center. […] Once the medium had cooled, the vials were used normally for placing eggs and growing larvae at 25° C. until reaching the advanced LIII stage.
Reaching the advanced larva III stage, the animals were surgically processed to expose the neuromuscular junctures (NMJ) following the described method (Martin-Peña et al., Age-independent synaptogenesis by phosphoinositide 3 kinase. J Neurosci. 2006 Oct. 4; 26(40):10199-208). The nc82 antibody is a specific monoclonal for the Bruchpilot protein of Drosophila belonging to the CAST family of vertebrae and forms the presynaptic specialization. It was obtained from the Drosophila Hybridoma Bank (DSHB). The anti-HRP antibody produced in rabbits marks the neuronal membrane and was obtained from Jackson ImmunoResearch. A larval neuromuscular juncture was analyzed up to a total of 8-12 larvae per genotype to avoid growth artefacts. The serialized confocal sections of 1 micrometer thickness were analyzed and quantified using the Imaris® program.
The larval preparations were stained with the nc82 antibody to visualize the synapse and with the anti-HRP to visualize the membrane of the axon. Lastly, the synapse number was measured in images obtained in confocal microscopy and quantified by means of Imaris® software.

O=C(CN1CCCCC1)NN1c2ccccc2Sc2ccccc21 [FD44] was tested, and the “inhibition of the interaction between human NCS1 and Ric8a (coimmunoprecipitation, Western blot)” value [1] was “effectively inhibits this interaction”, the “binding mode in the NCS-1 crystal complex” value [2] was “inserted in the N-terminal part of the elongated hydrophobic groove” and the “neuronal projection volume (volume of the neuromuscular plate)” value ([3]; fmr1 mutant larvae, 200 micromolar in culture medium, FIG. 3A) was “reverts the neuronal projection volume to the normal levels of the controls”. The “synapse number (nc82 immunopositive points)” value ([3]; fmr1 mutant larvae, 200 micromolar in culture medium, FIG. 3B) was “reversion in the mutant which has ingested FD44”, the “effect on wild type control (volume of the neuromuscular plate)” value ([3]; in vivo) was “innocuous for the wild type control” and the “collateral branch number (neuritogenesis)” value ([3]; wild type and fmr1 mutant larvae, 200 micromolar in culture medium, FIG. 3C) was “does not show any change”.
